# Assay results taken from patent US12599600B2, “Compositions and methods for preventing and treating headache through enhancing 2-arachydonyl glyerol activity” (Arizona Board of Regents on Behalf of the University of …, priority 2020, dated 2026).
# What was measured:
# [1] = biological target: GPR55 (Homo sapiens, UniProt Q9Y2T6); settings: cited from earlier work
# [2] = biological target: T1, CB2R (Homo sapiens, UniProt P34972); settings: cited from earlier work
# [3] = biological target: T1, CB2R; settings: cited from earlier work; remark: listed apart in the source
# [4] = system: cortical KCl induced periorbital allodynia in female rats; assay: Cortical KCl induced periorbital (facial) allodynia in female rats; type: in vivo, rat; settings: for reversal of periorbital allodynia / prevention of periorbital allodynia: female rats
# Method: FIG. 2A-D: Cortical KCl, but not dural KCl, induces periorbital allodynia in female rats and activates cFOS. A. Cortical KCl (0.5 μL, 1M) induces significant periorbital allodynia that is not blocked by dural lidocaine (2%, 5 μl, 10-15 min) pretreatment. […] C. Comparing areas under the curves for A and B confirmed that cortical KCl, regardless of dural lidocaine, induces significant periorbital allodynia that is not replicated by dural application of KCl. D. Cortical KCl allodynia increases cortical cFos 90 min post-injection (n=3-4/group). Data are mean±SEM (n=8-11), one or two-way ANOVA, *p<0.05: **<0.01: ***p<0.001: dotted line-naïve.
# FIG. 8A-B: MAGL inhibition alleviates cortical KCl induced periorbital allodynia in female rats. […] Data are expressed mean±SEM (n=8-12), two-way RMANOVA Bonferroni, *p<0.051 **p<0.01: ****p<0.0001.
# FIG. 9A-B: ABHD6 inhibition alleviates cortical KCl induced periorbital allodynia in female rats. […] Data are expressed mean±SEM (n=8-12), two-way RMANOVA Bonferroni, *p<0.05: **p<0.01: ***p<0.001.
# FIG. 10A-B: Dual MAGL/ABHD6 inhibition alleviates cortical KCl induced periorbital allodynia in female rats. […] Data are expressed mean±SEM (n=7-14), two-way RMANOVA, Bonferroni, *p<0.05: **p<0.01: ****p<0.0001.
# (§1) FIG. 13A-B: MAGL inhibition and cannabinoid receptor selectivity. Injection of CB1R antagonist, rimonabant (1 mg/kg, IP) prior to KCl shifted onset of MJN110 (10 mg/kg, IP) by 30 min. CB2R antagonist, SR144528 (1 mg/kg, IP), injected prior to KCl blocked the anti-allodynic effect of MJN110. Data are expressed mean±SEM (n=9), one- and two-way ANOVA, *p<0.05, ***p<0.001, ****p<0.0001.
# Data are expressed mean±SEM (n=8-12), two-way RMANOVA Bonferroni, *p<0.051 **p<0.01: ****p<0.0001.
# Data are expressed mean±SEM (n=8-12), two-way RMANOVA Bonferroni, *p<0.05: **p<0.01: ***p<0.001.
# Data are expressed mean+SEM (n=7-14), two-way RMANOVA, Bonferroni, *p<0.05: **p<0.01: ****p<0.0001.
# as §1, with “Injection” for “FIG. 13A-B: MAGL inhibition and cannabinoid receptor selectivity. Injection”, “mean #SEM” for “mean±SEM”
# [5] = system: migraine pain; settings: preclinical, cited from earlier work
# T1 sequence (P34972 whole entry): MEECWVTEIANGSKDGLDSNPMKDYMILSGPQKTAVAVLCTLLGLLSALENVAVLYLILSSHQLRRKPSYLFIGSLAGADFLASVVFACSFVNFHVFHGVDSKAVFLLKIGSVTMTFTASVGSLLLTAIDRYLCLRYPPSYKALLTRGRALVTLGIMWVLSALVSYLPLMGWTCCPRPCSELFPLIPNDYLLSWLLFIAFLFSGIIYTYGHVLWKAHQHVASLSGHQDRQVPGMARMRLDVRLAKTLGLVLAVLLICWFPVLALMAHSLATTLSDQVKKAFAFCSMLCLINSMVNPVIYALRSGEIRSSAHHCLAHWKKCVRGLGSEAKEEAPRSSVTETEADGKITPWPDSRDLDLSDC
# Chain of GPR55 (Q9Y2T6 whole entry, species assumed): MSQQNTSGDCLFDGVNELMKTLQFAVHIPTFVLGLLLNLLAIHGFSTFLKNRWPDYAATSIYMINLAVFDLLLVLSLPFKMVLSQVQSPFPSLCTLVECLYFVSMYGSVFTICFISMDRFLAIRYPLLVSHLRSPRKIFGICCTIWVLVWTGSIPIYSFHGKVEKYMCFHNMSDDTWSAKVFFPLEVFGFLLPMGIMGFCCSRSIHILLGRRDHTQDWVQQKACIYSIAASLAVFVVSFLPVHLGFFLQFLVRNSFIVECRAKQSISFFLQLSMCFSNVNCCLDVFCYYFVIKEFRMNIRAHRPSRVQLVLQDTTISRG
compound,measurement,setting,value
"CCCCC/C=C\C/C=C\C/C=C\C/C=C\CCCC(=O)OC(CO)CO [2AG, 2-arachidonoylglycerol]",EC50,[1],618 nM
same,Ki,[2],175 to 1400 nM
same,EC50,[3],4 nM
same,Emax,[3],34%
"O=C(N1CCCCC1c1ccccc1)n1cc(-c2ccc(-c3cccc(CO)c3)cc2)nn1 (centres unmarked) [KT182, (4-(3′-(hydroxymethyl)-[1,1′-biphenyl]-4-yl)-1H-1,2,3-triazol-1-yl)(2-phenylpiperidin-1-yl) methanone]",reversal of periorbital allodynia,[4]; KT182 2 mg/kg IP after cortical KCl (0.5 μL),reverses
same,prevention of periorbital allodynia,[4]; KT182 2 mg/kg IP before cortical KCl (0.5 μL),prevents
"O=C(ON1C(=O)CCC1=O)N1CCN(C(c2ccc(Cl)cc2)c2ccc(Cl)cc2)CC1 [MJN110, 2,5-dioxopyrrolidin-1-yl 4-(bis(4-chlorophenyl)methyl)piperazine-1-carboxylate]",reversal of periorbital allodynia,[4]; MJN110 10 mg/kg IP after cortical KCl (0.5 μL),reverses
same,prevention of periorbital allodynia,[4]; MJN110 10 mg/kg IP before cortical KCl (0.5 μL),prevents
CCCCCc1cc(O)c2c(c1)OC(C)(C)[C@@H]1CCC(C)=C[C@@H]21 [THC],reduction of migraine pain,[5]; acute,effective
same,migraine-like pain,[5]; repeated exposure,increases
CCN(CC)CC(=O)Nc1c(C)cccc1C [lidocaine],block of cortical KCl induced periorbital allodynia,"[4]; dural lidocaine 2%, 5 μl, 10-15 min pretreatment, cortical KCl 0.5 μL, 1M",not blocked
same,effect on periorbital allodynia after dural KCl,"[4]; lidocaine pretreatment, dural KCl 5 uL, 1M",no effect
Cc1c(C(=O)NN2CCCCC2)nn(-c2ccc(Cl)cc2Cl)c1-c1ccc(Cl)cc1 [rimonabant],shift of onset of MJN110 effect,"[4]; rimonabant 1 mg/kg IP prior to KCl, MJN110 10 mg/kg IP",30 min
SR144528,effect on the anti-allodynic effect of MJN110,"[4]; SR144528 1 mg/kg IP prior to KCl, MJN110 10 mg/kg IP",blocked
